Measurements reported in US4241063A, “Purine derivatives and their use as bronchodilators” (Bristol-Myers Company, priority 1979, dated 1980).
≈ marks a conversion by molar mass, not a printed value. Where two headings read alike, the source gives them in different places.

Columns and labels:
[1] = system: Arterial blood pressure (ABP); test: In vivo hypotensive activity: arterial blood pressure (ABP) in anesthetized guinea pig
Description: (§1) The trachea of anesthetized guinea pig was cannulated and the ITP recorded on a polygraph under artificial ventilation. Arterial blood pressure (ABP; reflecting hypotensive activity) was also measured during the experiment. Either intravenous or intraduodenal routes of administration are used. […] The ratio of hypotensive ED20 /bronchodilating ED50 reflects an assessment of the separation of desirable bronchodilator activity from undesirable cardiovascular (hypotensive) effect in the compounds.

[2] = system: intratracheal pressure (ITP) in the guinea pig; test: In vivo bronchodilator activity: decrease in intratracheal pressure (ITP) in anesthetized guinea pig; conditions: for ED50: Cavia porcellus, read-out: ITP ED50 (dose resulting in a 50% decrease in intratracheal pressure)
Description: as §1

[3] = system: Tracheal chains of guinea pig; test: In vitro bronchodilator activity (guinea pig tracheal chain relaxation, Magnus method); type: cell-based; conditions: Cavia porcellus, read-out: EC50 (concentration producing a relaxation which is 50% of the maximum response to 0.1 mcg./ml. of isoproterenol), relative to maximum response to 0.1 mcg./ml. isoproterenol
Description: Tracheal chains of guinea pig were prepared by the method of A. Akcasu, Arch. Int. Pharmacodyn. […] The response to each test compound was recorded by the Magnus method and expressed as a percentage of the maximum response obtained with 0.1 mcg./ml. of isoproterenol prior to each experiment.

Row | SMILES | ABP ED20 (dose which reduces arterial blood pressure by 20%) ([1]; intravenous) | ED50 ([2]; intravenous) | EC50 [3] | ED50 ([2]; intraduodenal) | Ratio ABP/ITP (hypotensive ED20/bronchodilating ED50) ([2]; intraduodenal) | Ratio ABP/ITP (hypotensive ED20/bronchodilating ED50) ([2]; intravenous) | ABP ED20 (dose which reduces arterial blood pressure by 20%) ([1]; intraduodenal)
1 | Cn1c(=O)c2[nH]cnc2n(C)c1=O [Aminophylline, reference compound] | 1.4 mg/kg | – | – | – | – | – | –
2 | Nc1nc(Cl)nc2c1ncn2C1CCCCO1 (centres unmarked) [Example 1, 2-Chloro-9-(tetrahydropyran-2-yl)-9H-adenine] | > 1 mg/kg | 0.23 mg/kg | 0.45 µg/mL (≈ 1.77 µM) | – | – | – | –
3 | COc1nc(N)c2ncn(C3CCCCO3)c2n1 (centres unmarked) [Example 2, 2-Methoxy-9-(tetrahydropyran-2-yl)-9H-adenine] | > 1 mg/kg | 2.2 mg/kg | > 3 µg/mL | – | – | – | –
4 | CCCOc1nc(N)c2ncn(C3CCCCO3)c2n1 (centres unmarked) [Example 3, 2-n-Propoxy-9-(tetrahydropyran-2-yl)-9H-adenine] | 1.9 mg/kg | 0.26 mg/kg | 0.17 µg/mL (≈ 0.613 µM) | 1.4 mg/kg | 9.6 | 7.3 | 13.5 mg/kg
